Legend:
Pseudomonas aeruginosa [1] = test: Antibacterial activity against multidrug-resistant Pseudomonas aeruginosa assessed as reduction in microbial growth incubated for 24 hrs by microdilution assay; format: functional
Escherichia coli [2] = test: Antibacterial activity against Escherichia coli ATCC 25922 = CCM 3954 assessed as inhibition of bacterial growth incubated for 24 hrs by microdilution assay; format: functional
Escherichia coli [3] = test: Antibacterial activity against Escherichia coli ATCC 25922 = CCM 3954 assessed as inhibition of bacterial growth incubated for 24 hrs in presence of BSA by microdilution assay; format: functional
Staphylococcus aureus [4] = test: Antibacterial activity against Staphylococcus aureus ATCC 29213 = CCM 4223 assessed as inhibition of bacterial growth incubated for 24 hrs by microdilution assay; format: functional
[5] = test system: Staphylococcus epidermidis; test: Antibacterial activity against Staphylococcus epidermidis CCM 7221 assessed as inhibition of bacterial growth incubated for 24 hrs by microdilution assay; format: functional
Staphylococcus aureus [6] = test: Antibacterial activity against Staphylococcus aureus ATCC 29213 = CCM 4223 assessed as inhibition of bacterial growth incubated for 24 hrs in presence of BSA by microdilution assay; format: functional
[7] = Hemolytic activity in human RBC assessed as haemoglobin release measured after 3 hr; format: toxicity, cell-based, Erythrocyte; settings: red blood cells (erythrocytes)
Pseudomonas aeruginosa [8] = test: Antibacterial activity against Pseudomonas aeruginosa ATCC 27853 = CCM 3955 assessed as inhibition of bacterial growth incubated for 24 hrs by microdilution assay; format: functional
Enterococcus faecium = test: Antibacterial activity against vancomycin resistant Enterococcus faecium 419/ANA assessed as reduction in microbial growth incubated for 24 hrs by microdilution assay; format: functional
[9] = Gradient chromatographic hydrophobicity index of the compound at pH 3.7 by HPLC analysis; format: ADME
Enterococcus faecalis = test: Antibacterial activity against Enterococcus faecalis ATCC 29212 = CCM 4224 assessed as inhibition of bacterial growth incubated for 24 hrs by microdilution assay; format: functional
Escherichia coli [10] = test: Antibacterial activity against multidrug-resistant Escherichia coli CE5556 expressing CTX-M-15 assessed as reduction in microbial growth incubated for 24 hrs by microdilution assay; format: functional
Staphylococcus aureus [11] = test: Antibacterial activity against methicillin resistant Staphylococcus aureus 4591/A assessed as reduction in microbial growth incubated for 24 hrs by microdilution assay; format: functional

| Structure (SMILES) | MIC (Pseudomonas aeruginosa [1]) | MIC (Escherichia coli [2]) | MIC (Escherichia coli [3]) | MIC (Staphylococcus aureus [4]) | MIC [5] | MIC (Staphylococcus aureus [6]) | HC50 at 3 h [7] | MIC (Pseudomonas aeruginosa [8]) | MIC (Enterococcus faecium) | CHI [9] | MIC (Enterococcus faecalis) | MIC (Escherichia coli [10]) | MIC (Staphylococcus aureus [11]) |
| --- | --- | --- | --- | --- | --- | --- | --- | --- | --- | --- | --- | --- | --- |
| Cl.Cl.Cl.Cl.Cl.Cl.N=C(N)NCCCN(CCCNC(=N)N)CCP(=O)(OCCCCCCCOP(=O)(CCN(CCCNC(=N)N)CCCNC(=N)N)OCCCC(F)(F)F)OCCCC(F)(F)F (centres undefined) | > 128 µg/mL | 1 µg/mL | 128 µg/mL | 8 µg/mL | 8 µg/mL | 16 µg/mL | > 200 µg/mL | > 128 µg/mL | > 128 µg/mL | 25.2 | > 128 µg/mL | 128 µg/mL | 8 µg/mL |
| CCC/C=C\CCOP(=O)(CCN(CCN)CCN)OCCCCCCCOP(=O)(CCN(CCN)CCN)OCC/C=C\CCC.Cl.Cl.Cl.Cl.Cl.Cl (centres undefined) | 32 µg/mL | > 128 µg/mL | 16 µg/mL | 2 µg/mL | 0.5 µg/mL | 4 µg/mL | > 500 µg/mL | 32 µg/mL | 128 µg/mL | 37.4 | 16 µg/mL | 32 µg/mL | 1 µg/mL |
| Cl.Cl.Cl.Cl.Cl.Cl.NCCCN(CCCN)CCP(=O)(OCCCCCCCCCCOP(=O)(CCN(CCCN)CCCN)OCCc1ccccc1)OCCc1ccccc1 (centres undefined) | 64 µg/mL | 16 µg/mL | 32 µg/mL | 2 µg/mL | 1 µg/mL | 4 µg/mL | > 500 µg/mL | 64 µg/mL | 128 µg/mL | 31.1 | 32 µg/mL | 64 µg/mL | 2 µg/mL |
| Cl.Cl.Cl.Cl.Cl.Cl.NCCCN(CCCN)CCP(=O)(OCCCCCCOP(=O)(CCN(CCCN)CCCN)OCCc1ccccc1)OCCc1ccccc1 (centres undefined) | > 128 µg/mL | > 128 µg/mL | > 128 µg/mL | 64 µg/mL | 64 µg/mL | > 128 µg/mL | > 200 µg/mL | > 128 µg/mL | > 128 µg/mL | 11.9 | > 128 µg/mL | > 128 µg/mL | 64 µg/mL |
| Cl.Cl.Cl.Cl.Cl.Cl.NCCCN(CCCN)CCP(=O)(OCCCOP(=O)(CCN(CCCN)CCCN)OCC1CCCC1)OCC1CCCC1 (centres undefined) | > 128 µg/mL | > 128 µg/mL | > 128 µg/mL | > 128 µg/mL | > 128 µg/mL | > 128 µg/mL | > 1000 µg/mL | > 128 µg/mL | > 128 µg/mL | 5 | > 128 µg/mL | > 128 µg/mL | > 128 µg/mL |
| CCC/C=C\CCOP(=O)(CCN(CCCN)CCCN)OCCCCCOP(=O)(CCN(CCCN)CCCN)OCC/C=C\CCC.Cl.Cl.Cl.Cl.Cl.Cl (centres undefined) | > 128 µg/mL | 128 µg/mL | 128 µg/mL | 32 µg/mL | 128 µg/mL | 64 µg/mL | > 250 µg/mL | > 128 µg/mL | > 128 µg/mL | 28.2 | > 128 µg/mL | > 128 µg/mL | 32 µg/mL |
| CC(C)COP(=O)(CCN(CCCN)CCCN)OCCCCCCCCCCOP(=O)(CCN(CCCN)CCCN)OCC(C)C.Cl.Cl.Cl.Cl.Cl.Cl (centres undefined) | 64 µg/mL | > 128 µg/mL | > 128 µg/mL | 32 µg/mL | 8 µg/mL | 16 µg/mL | > 500 µg/mL | 128 µg/mL | 128 µg/mL | 35 | 64 µg/mL | 128 µg/mL | 16 µg/mL |
| Cl.Cl.Cl.Cl.Cl.Cl.NCCCN(CCCN)CCP(=O)(OCCCCCCCCOP(=O)(CCN(CCCN)CCCN)OCCc1ccccc1)OCCc1ccccc1 (centres undefined) | 128 µg/mL | 128 µg/mL | 128 µg/mL | 16 µg/mL | 8 µg/mL | 32 µg/mL | > 200 µg/mL | 128 µg/mL | 128 µg/mL | 27.3 | 128 µg/mL | 128 µg/mL | 16 µg/mL |

— ChEMBL document CHEMBL5120927, “LEGO-Lipophosphonoxins: A Novel Approach in Designing Membrane Targeting Antimicrobials” (J Med Chem, 2022)
